US7989449B2, “4,5-dihydro-oxazol-2-yl amine derivatives” (Hoffman-La Roche Inc., priority 2008, dated 2011)
pIC50: −log10 of the molar value. Counter-ions that a name gives are not always drawn.

The compounds below were run against T1, 6his-tagged full length BACE 1 from SF9 cells (Homo sapiens, UniProt P56817) (assay: BACE1 MR121 protease assay). Conditions: 30 nM 6his-BACE-1, 300 nM substrate peptide WSEVNLDAEFRC-MR121, Na-acetate pH 4.0, fluorescence.
T1 construct: 6his-tagged full length BACE 1 from SF9 cells; made in house; host or cells: Sf9 insect cells
T1 sequence (P56817 46-501): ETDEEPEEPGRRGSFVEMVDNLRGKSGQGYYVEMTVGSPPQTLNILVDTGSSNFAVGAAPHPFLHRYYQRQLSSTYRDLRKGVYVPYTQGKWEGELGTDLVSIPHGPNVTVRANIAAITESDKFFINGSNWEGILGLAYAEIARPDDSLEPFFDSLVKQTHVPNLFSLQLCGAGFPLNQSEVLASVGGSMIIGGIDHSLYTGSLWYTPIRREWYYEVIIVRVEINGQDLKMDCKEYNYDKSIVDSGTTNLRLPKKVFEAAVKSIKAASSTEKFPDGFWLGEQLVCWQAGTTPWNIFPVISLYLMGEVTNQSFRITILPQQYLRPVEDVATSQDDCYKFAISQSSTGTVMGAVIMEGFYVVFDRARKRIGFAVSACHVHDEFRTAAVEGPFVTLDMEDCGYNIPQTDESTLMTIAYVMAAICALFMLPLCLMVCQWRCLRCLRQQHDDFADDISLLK
Format: biochemical
Procedure: Assay plate: 384 well microtiter plate, Corning clear, flat bottom, non binding surface
Assaybuffer: 100 mM Na-acetate pH 4.0, 20 mM EDTA, 0.05% BSA
BACE-1: 6his-tagged full length BACE 1 from SF9 cells
Substrate peptide: WSEVNLDAEFRC-MR121
BACE1 MR121 protease assay
39 μl of a 38 nM 6his-BACE-1 solution in assay buffer (final conc. in the assay: 30 nM) were pipetted into the assay plate. 1 μl of a concentration of a potential inhibitor in dimethylsulfoxide was added to the enzyme and incubated for 10 min. Finally, 10 μl of a 1.5 μM solution of the substrate in assay buffer (final conc. in the assay: 300 nM) was added to start the enzymatic reaction. After strong mixing for 2 min the enzymatic reaction was followed by measuring the fluorescence intensity every two minutes for 15 min on a suitable fluorescence reader. […] The slope was calculated from the linear part of the kinetic as a measure of the activity of BACE-1. A range of concentrations of the potential inhibitor was used to generate data for calculating the concentration of inhibitor resulting in 50% of the effect (e.g. IC50, the concentration of the compound inhibiting the BACE-1 activity by 50%).

Compound | pIC50
Cc1cc(C2(c3cccc(-c4cccc(Cl)c4)c3)COC(N)=N2)ccc1OC(F)F (racemic) [Example 99, (RS)-4-(3′-Chloro-biphenyl-3-yl)-4-(4-difluoromethoxy-3-methyl-phenyl)-4,5-dihydro-oxazol-2-ylamine formate] | 6.77
Cc1cc(C2(c3cccc(-c4cncc(F)c4)c3)COC(N)=N2)ccc1OC(F)F (racemic) [Example 102, (RS)-4-(4-Difluoromethoxy-3-methyl-phenyl)-4-[3-(5-fluoro-pyridin-3-yl)-phenyl]-4,5-dihydro-oxazol-2-ylamine formate] | 6.68
Cc1cncc(-c2cccc(C3(c4ccc(OC(F)F)c(C)c4)COC(N)=N3)c2)c1 (racemic) [Example 103, (RS)-4-(4-Difluoromethoxy-3-methyl-phenyl)-4-[3-(5-methyl-pyridin-3-yl)-phenyl]-4,5-dihydro-oxazol-2-ylamine formate] | 6.49
COc1ccc(C2(c3ccc(F)c(-c4cncc(Cl)c4)c3)COC(N)=N2)cc1Cl (racemic) [Example 108, (RS)-4-(3-Chloro-4-methoxy-phenyl)-4-[3-(5-chloro-pyridin-3-yl)-4-fluoro-phenyl]-4,5-dihydro-oxazol-2-ylamine formate] | 6.54
COc1ccc(C2(c3ccc(F)c(-c4cccnc4)c3)COC(N)=N2)cc1Cl (racemic) [Example 109, (RS)-4-(3-Chloro-4-methoxy-phenyl)-4-(4-fluoro-3-pyridin-3-yl-phenyl)-4,5-dihydro-oxazol-2-ylamine formate] | 6.11
COc1cncc(-c2cc(C3(c4ccc(OC)c(Cl)c4)COC(N)=N3)ccc2F)c1 (racemic) [Example 111, (RS)-4-(3-Chloro-4-methoxy-phenyl)-4-[4-fluoro-3-(5-methoxy-pyridin-3-yl)-phenyl]-4,5-dihydro-oxazol-2-ylamine formate] | 6.80
COc1ccc(C2(c3ccc(F)c(-c4cncc(F)c4)c3)COC(N)=N2)cc1Cl (racemic) [Example 112, (RS)-4-(3-Chloro-4-methoxy-phenyl)-4-[4-fluoro-3-(5-fluoro-pyridin-3-yl)-phenyl]-4,5-dihydro-oxazol-2-ylamine] | 6.19
COc1ccc(C2(c3ccc(F)c(-c4cc(C)cnc4F)c3)COC(N)=N2)cc1Cl (racemic) [Example 113, (RS)-4-(3-Chloro-4-methoxy-phenyl)-4-[4-fluoro-3-(2-fluoro-5-methyl-pyridin-3-yl)-phenyl]-4,5-dihydro-oxazol-2-ylamine] | 6.14
COc1ccc(F)c(-c2cc(C3(c4ccc(OC)c(Cl)c4)COC(N)=N3)ccc2F)c1 (racemic) [Example 114, (RS)-4-(3-Chloro-4-methoxy-phenyl)-4-(6,2′-difluoro-5′-methoxy-biphenyl-3-yl)-4,5-dihydro-oxazol-2-ylamine formate] | 6.18
NC1=NC(c2cccc(-c3cncc(Cl)c3)c2)(c2ccc(OC(F)F)c(F)c2)CO1 (racemic) [Example 115, (RS)-4-[3-(5-Chloro-pyridin-3-yl)-phenyl]-4-(4-difluoromethoxy-3-fluoro-phenyl)-4,5-dihydro-oxazol-2-ylamine formate] | 6.62
NC1=NC(c2cccc(-c3cncnc3)c2)(c2ccc(OC(F)F)c(Cl)c2)CO1 (racemic) [Example 118, (RS)-4-(3-Chloro-4-difluoromethoxy-phenyl)-4-(3-pyrimidin-5-yl-phenyl)-4,5-dihydro-oxazol-2-ylamine formate] | 6.70
Cc1cc(C2(c3ccc(F)c(-c4cncc(F)c4)c3)COC(N)=N2)ccc1OC(F)F (racemic) [Example 122, (RS)-4-(4-Difluoromethoxy-3-methyl-phenyl)-4-[4-fluoro-3-(5-fluoro-pyridin-3-yl)-phenyl]-4,5-dihydro-oxazol-2-ylamine formate] | 6.82
COc1ccc(F)c(-c2cc(C3(c4ccc(OC(F)F)c(C)c4)COC(N)=N3)ccc2F)c1 (racemic) [Example 123, (RS)-4-(6,2′-Difluoro-5′-methoxy-biphenyl-3-yl)-4-(4-difluoromethoxy-3-methyl-phenyl)-4,5-dihydro-oxazol-2-ylamine formate] | 6.70
Cc1cc(OC(F)F)ccc1C1(c2cccc(-c3cncnc3)c2)COC(N)=N1 (racemic) [Example 129, (RS)-4-(4-Difluoromethoxy-2-methyl-phenyl)-4-(3-pyrimidin-5-yl-phenyl)-4,5-dihydro-oxazol-2-ylamine formate] | 6.30
COc1ccc(F)c(-c2cccc(C3(c4ccc(OC(F)F)cc4C)COC(N)=N3)c2)c1 (racemic) [Example 130, (RS)-4-(4-Difluoromethoxy-2-methyl-phenyl)-4-(2′-fluoro-5′-methoxy-biphenyl-3-yl)-4,5-dihydro-oxazol-2-ylamine formate] | 6.31
Cc1cnc(F)c(-c2cccc(C3(c4ccc(OC(F)F)cc4C)COC(N)=N3)c2)c1 (racemic) [Example 131, (RS)-4-(4-Difluoromethoxy-2-methyl-phenyl)-4-[3-(2-fluoro-5-methyl-pyridin-3-yl)-phenyl]-4,5-dihydro-oxazol-2-ylamine formate] | 6.34
NC1=NC(c2cccc(-c3cncc(F)c3)c2)(c2ccc(OC(F)F)cc2F)CO1 (racemic) [Example 142, (RS)-4-(4-Difluoromethoxy-2-fluoro-phenyl)-4-[3-(5-fluoro-pyridin-3-yl)-phenyl]-4,5-dihydro-oxazol-2-ylamine formate] | 6.08
Cc1cc(OC(F)F)ccc1C1(c2cccc(-c3cncc(F)c3)c2)COC(N)=N1 (racemic) [Example 145, (RS)-4-(4-Difluoromethoxy-2-methyl-phenyl)-4-[3-(5-fluoro-pyridin-3-yl)-phenyl]-4,5-dihydro-oxazol-2-ylamine formate] | 6.14
COc1cncc(-c2cccc(C3(c4ccc(OC(F)F)cc4C)COC(N)=N3)c2)c1 (racemic) [Example 146, (RS)-4-(4-Difluoromethoxy-2-methyl-phenyl)-4-[3-(5-methoxy-pyridin-3-yl)-phenyl]-4,5-dihydro-oxazol-2-ylamine formate] | 6.70
Cc1cc(OC(F)F)ccc1C1(c2cccc(-c3cccc(Cl)c3)c2)COC(N)=N1 (racemic) [Example 149, (RS)-4-(3′-Chloro-biphenyl-3-yl)-4-(4-difluoromethoxy-2-methyl-phenyl)-4,5-dihydro-oxazol-2-ylamine formate] | 6.02

More lines, in order of rising pIC50, values ahead:

pIC50 | Compound
6.82 | Cc1cc(C2(c3cccc(-c4cccnc4F)c3)COC(N)=N2)ccc1OC(F)F (racemic) [Example 98, (RS)-4-(4-Difluoromethoxy-3-methyl-phenyl)-4-[3-(2-fluoro-pyridin-3-yl)-phenyl]-4,5-dihydro-oxazol-2-ylamine formate]
6.89 | Cc1cnc(F)c(-c2cccc(C3(c4ccc(OC(F)F)c(C)c4)COC(N)=N3)c2)c1 (racemic) [Example 104, (RS)-4-(4-Difluoromethoxy-3-methyl-phenyl)-4-[3-(2-fluoro-5-methyl-pyridin-3-yl)-phenyl]-4,5-dihydro-oxazol-2-ylamine formate]
6.89 | COc1ccc(F)c(-c2cccc(C3(c4ccc(OC(F)F)c(C)c4)COC(N)=N3)c2)c1 (racemic) [Example 105, (RS)-4-(4-Difluoromethoxy-3-methyl-phenyl)-4-(2′-fluoro-5′-methoxy-biphenyl-3-yl)-4,5-dihydro-oxazol-2-ylamine formate]
6.89 | Cc1cc(C2(c3ccc(F)c(-c4cccnc4)c3)COC(N)=N2)ccc1OC(F)F (racemic) [Example 119, (RS)-4-(4-Difluoromethoxy-3-methyl-phenyl)-4-(4-fluoro-3-pyridin-3-yl-phenyl)-4,5-dihydro-oxazol-2-ylamine formate]
6.92 | Cc1cc(C2(c3cccc(-c4cncnc4)c3)COC(N)=N2)ccc1OC(F)F (racemic) [Example 100, (RS)-4-(4-Difluoromethoxy-3-methyl-phenyl)-4-(3-pyrimidin-5-yl-phenyl)-4,5-dihydro-oxazol-2-ylamine formate]
7.05 | Cc1cc(C2(c3ccc(F)c(-c4cncnc4)c3)COC(N)=N2)ccc1OC(F)F (racemic) [Example 120, (RS)-4-(4-Difluoromethoxy-3-methyl-phenyl)-4-(4-fluoro-3-pyrimidin-5-yl-phenyl)-4,5-dihydro-oxazol-2-ylamine formate]
7.10 | COc1cncc(-c2cccc(C3(c4ccc(OC(F)F)c(Cl)c4)COC(N)=N3)c2)c1 (racemic) [Example 117, (RS)-4-(3-Chloro-4-difluoromethoxy-phenyl)-4-[3-(5-methoxy-pyridin-3-yl)-phenyl]-4,5-dihydro-oxazol-2-ylamine formate]
7.22 | COc1cncc(-c2cccc(C3(c4ccc(OC(F)F)c(C)c4)COC(N)=N3)c2)c1 (racemic) [Example 101, (RS)-4-(4-Difluoromethoxy-3-methyl-phenyl)-4-[3-(5-methoxy-pyridin-3-yl)-phenyl]-4,5-dihydro-oxazol-2-ylamine formate]
7.30 | COc1cncc(-c2cc(C3(c4ccc(OC(F)F)c(C)c4)COC(N)=N3)ccc2F)c1 (racemic) [Example 121, (RS)-4-(4-Difluoromethoxy-3-methyl-phenyl)-4-[4-fluoro-3-(5-methoxy-pyridin-3-yl)-phenyl]-4,5-dihydro-oxazol-2-ylamine formate]
